Data published in patent US11352382B2, “Mito-lonidamine, compositions and methods of use” (THE MEDICAL COLLEGE OF WISCONSIN, INC., priority 2018, dated 2022).

Assays:
[1] = test system: phosphorylated ERK and AKT in H2030BrM3 cells; assay: Receptor tyrosine kinase assay and Western blots of ERK and AKT phosphorylation; format: cell-based, human
Description: Role of HK2 and additional possible signaling events that contribute to the effects of Mito-LON. […] This could contribute to their effects as many cancers have constitutive ERK activation which promotes survival and proliferation, and ERK1 can play an important role in regulating mitochondrial activity, apoptosis, proliferation and migration. […] AKT is another pro-survival factor that is constitutively activated (phosphorylated) in many cancers.

[2] = test system: H2030, PC9, H460, H2030BrM3, PC9BrM3 cells; assay: Cell viability of lung cancer and brain metastatic lines (Calcein-AM); format: cell-based, human
Description: Mito-LON treatment causes cell death of human lung cancer and lung cancer-derived brain metastatic cell lines. Paradoxical roles for autophagy in cancer have been reported for the role of autophagy in cancer. Under conditions of nutrient deprivation autophagy induction can promote cell survival; however, in response to other environmental stressors including ROS generation, autophagy can promote cancer cell death. We treated lung cancer lines (H2030, PC9, H460) and lung cancer-derived brain metastatic lines (H2030BrM3, PC9BrM3) with Mito-LON (1.6, 2.0 or 2.4 μM) and measured cell viability at 24 and 48 h.

[3] = test system: H2030BrM3 orthotopic lung adenocarcinoma in nude mice; assay: Orthotopic lung tumor mouse model; format: in vivo
Experimental: Inhibitory effects of Mito-LON in an orthotopic lung tumor mouse model. We conducted a pilot study using an orthotopic model of lung adenocarcinoma (H2030BrM3 cells) in nude mice. Cells (1×10^6 cells/50 μg of growth factor-reduced Matrigel in 50 μL of RPMI-1640) were injected into the lung. One week after injection, mice were treated with the same dose of LON or Mito-LON (7.5 μmol/kg), or vehicle (corn oil), by oral gavage 5 times/wk for 3 wks.

[4] = test system: PC9BrM3 and H2030BrM3 brain metastasis lung cancer cell lines; assay: Boyden chamber (transwell) invasion assay; format: cell-based; conditions: Homo sapiens, H2030-BrM3, read-out: inhibitory effect on invasion when used alone
Description: Mito-LON inhibits migration and invasion of brain metastatic human lung cancer cells. To investigate the potential of Mito-LON and LON for lung cancer metastasis, we first tested its effects in vitro via the Boyden chamber invasion assay using PC9BrM3 and H2030BrM3 brain metastasis lung cancer cell lines.

mitochondrial Complex I = assay: Activity of mitochondrial complexes in permeabilized tumor cells (OCR), pancreatic cancer cells; format: cell-based, human
Experimental: To investigate the mechanism of mitochondrial inhibition, we measured the activity of mitochondrial complexes in tumor cells. The cell membrane was permeabilized, and OCR was measured upon addition of substrates and inhibitors of mitochondrial complexes I-II.

[5] = test system: mitochondrial complexes I and II; assay: Inhibition of mitochondrial complexes I and II, stated jointly; format: cell-based, human; conditions: for fold potency compared with LON/LDN, complexes I and II: H2030BrM3 lung cancer cells
Description: (§1) LON and Mito-LON inhibit mitochondrial complex I activity. Mito-LON inhibited cellular respiration (oxygen consumption rate, OCR) at >100-fold lower concentration than LON in intact lung cancer cells (FIG. 9). Both basal respiration and the response to mitochondrial stressors (oligomycin, dinitrophenol) were diminished by Mito-LON (not shown). To investigate the mechanism of mitochondrial inhibition, we measured the activity of mitochondrial complexes in H2030BrM3 cells (NSCLC cell line). The cell membrane was permeabilized, and OCR was measured upon addition of substrates and inhibitors of mitochondrial complexes I-IV (FIG. 9A). These studies established the optimal use of permeabilized cells for complex activity assays.^54 Next, cells were pretreated with LON and Mito-LON for 24 h and experiments performed as in FIG. 9A. […] We hypothesize that inhibition of mitochondrial complexes I and II is the predominant mechanism for antiproliferative effects of Mito-LON on lung cancer cells.

intact lung cancer cells = assay: Cellular respiration (oxygen consumption rate, OCR) in intact lung cancer cells; format: cell-based, human; conditions: not shown
Description: as §1

[6] = test system: VC-induced lung tumors in A/J mice; assay: Vinyl carbamate (VC)-induced lung carcinogenesis, post-initiation protocol; format: in vivo, mouse
Description: Preventive efficacy of Mito-LON on vinyl carbamate (VC)-Induced lung carcinogenesis using a post-initiation protocol. We evaluated the preventive efficacy of Mito-LON on the development of VC-induced lung tumors in A/J mice. A post-initiation protocol was used in this study by which administration of Mito-LON was initiated one week after VC. Mito-LON was given via oral gavage at a dose of 15 μmol/kg 5 days/week for 20 weeks.

A/J mice = assay: 8-week toxicology study (maximum tolerated dose, Modified Irwin Screen); format: in vivo, mouse
Description: Maximum tolerated dose (MTD) of Mito-LON. We conducted an 8-week toxicology study to evaluate possible toxicity of Mito-LON, especially on neural and muscle cells using a Modified Irwin Screen, developed as a comprehensive observational battery to broadly screen for central nervous system (CNS) effects of agents. Modifications of this test are extensively used in the pharmaceutical industry and in academic research to identify changes in neurological function as a result of agent intoxication, neurotoxicity, or genetic manipulation. The screen used here employs 35 distinct measurements to assess sensorimotor, neurological, and autonomic nervous system function^78. The effective dose (ED) of Mito-LON is designated as 7.5 μmol/kg based on our preliminary data (FIGS. 24 & 25).

[7] = test system: H2030 and H2030BrM3 cells; assay: Apoptosis markers in treated cells; format: cell-based, human
Description: Mito-LON's effects on inducing apoptosis in human lung cancer cell lines and their lung-derived brain metastatic lines. Results from Mito-LON-treated H2030 and H2030BrM3 cells (FIG. 20) supports cell death induction is mainly via autophagy rather than caspase-dependent apoptosis.

[8] = 7.5 μmol/kg oral gavage 5 times/wk for 3 wks, nude mice

With `O=C(NCCCCCCCCCC[P+](c1ccccc1)(c1ccccc1)c1ccccc1)c1nn(Cc2ccc(Cl)cc2Cl)c2ccccc12` [Mito-LON, Mito10-lonidamine] the “phosphorylated AKT levels” value [1] was “decreased phosphorylated AKT levels”, the “phosphorylated ERK levels” value ([1]; confirmed by Western blots) was “decreased phosphorylated ERK levels” and the cytotoxicity at 2 µM ([2]; Homo sapiens, NCI-H2030, H2030 cells, 2.0 μM, 48 h, Calcein-AM, read-out: reduction of cell viability) was ~50%. The “LD50, cell viability” value ([2]; lung cancer and brain metastatic lines, 24 and 48 h) was 2.0 µM, the “reduction of lymph node metastasis” value [3, 8] was > 50% and the “reduction of tumor progression” value [3, 8] was > 70%. For the same compound, the “liver histopathology (H&E sections)” value ([3]; 7.5 μmol/kg oral gavage, 3 wks) was “no histopathologic signs of toxicity”, the “effective dose (ED)” value ([3]; designated from preliminary data (FIGS. 24 & 25)) was 7.5 µmol/kg and the inhibition at 0.6 µM [4] was < 10%. The “Complex I versus Complex II inhibition” value (mitochondrial Complex I; FIG. 7) was “inhibits Complex I more potently than Complex II”, the “fold more potent than lonidamine in inhibiting Complex I activity of tumor cells” value (mitochondrial Complex I; FIGS. 7 and 8) was > 500 fold and the “concentration that targets mitochondrial complexes I and II” value ([5]; FIG. 9) was 1.2 to 2.7 µM. The “fold potency compared with LON/LDN, complexes I and II” value ([5]; FIG. 9) was “over 100 fold”, the “fold potency compared with LON/LDN, complexes I and II” value ([5]; FIG. 9, listed as Mito-LDN) was “greater than 100 fold” and the IC50 ([5]; read-out: IC50, inhibition of complex I and II, pretreatment of H2030BrM3 cells) was ~2000 nM. For the same compound, the “basal respiration and response to mitochondrial stressors (oligomycin, dinitrophenol)” value (intact lung cancer cells) was “diminished”, the “inhibition of VC-induced lung tumor development, total tumor load” value ([6]; 15 μmol/kg oral gavage 5 days/week for 20 weeks, A/J mice) was 62% and the body weight changes ([6]; 15 μmol/kg oral gavage, 20 weeks) was “did not observe any body weight changes”. For the same compound, the toxicity overall (A/J mice; doses up to 50× ED) was “did not show any toxicity”, the “body weights (and organ weights) and 35 Modified Irwin Screen metrics versus control” value (A/J mice; up to 50× ED, A/J mice, 8-weeks treatment) was “didn't observe any significant differences” and the “toxic effects in neural tissue and muscles by histopathology, liver function (serum AST and ALT)” value (A/J mice; up to 50× ED, A/J mice, 8 weeks) was “No toxic effects”. The caspase cleavage [7] was “did not induce caspase cleavage” and the “cleaved PARP and cytochrome c levels” value [7] was “increased levels of cleaved PARP and cytochrome c”.
